The source of these data is patent US8163788B2, “Low-molecular inhibitors of cytohesin-family guanine nucleotide exchange factors” (Rheinische Friedrich-Wilhelms Universitat Bonn, priority 2004, dated 2012).

The term CC50 denotes the concentration that lowers cell viability or growth by half. As usually defined, the IC50 is the concentration at which inhibition is half-maximal.

Series [1] deals with Peripheral blood lymphocytes. In words: cytotoxicity by propidium iodide (PI) flow cytometry. The class given is cell-based. To be noted: 50 nM to 50 μM. The protocol: The cytotoxicity of the compound according to Formula (9) was determined by means of propidium iodide (PI) employing flow cytometry. PI is a DNA stain that cannot penetrate into living cells. The experiments were carried out in an incubator at 37° C. [98.6° F.] and 5% CO2.
Peripheral blood lymphocytes were incubated with concentrations of 50 nM, 100 nM, 1 μM, 5 μM, 20 μM or 50 μM of the compound according to Formula (9) in “VLE-RPMI+/+” (Biochrom). The DMSO concentration per batch was 0.5%. A control batch contained 0.5% DMSO. After 2 hours, 24 hours and 72 hours, cells were removed and incubated with 2 μg/ml of PI for 5 minutes. The cells were centrifuged at 200×g for 8 minutes, washed with PBS, centrifuged again and analyzed in a flow cytometer (Beckmann Coulter, Krefeld).
For orientation: A flow cytometer gives signals particle by particle.

Series [2] can be described thus: MTT assay (LC50) in HeLa-cells. In kind it is cell-based. To be noted: human, after 24 hours. The protocol: The LC50 values were determined by an MTT assay according to a standard method.
The LC50 value describes the lethal concentration at which […] died within 24 hours after a one-time administration.
For orientation: Formazan colour is commonly taken as a measure of viable cells.

In series [3] the test system is cytohesin-2. Put plainly: luciferase assay in HeLa-cells (serum response element activation, MAPK path via cytohesin-2). The class given is cell-based. To be noted: compounds 1 μM to 50 μM, read-out: IC50 (luciferase signal). Here is the method: The IC50 value was determined in comparison to the LC50 value in a luciferase assay in HeLa-cells, corresponding to the test conditions described in Theis, M. G. et al., Proc Natl Acad Sci USA, 101, 11221-26 (2004). The stimulation of receptor tyrosine kinases by means of growth factors contained in fetal calf serum activates the MAPK path via cytohesin-2 and results in an activation of the serum response element. This activation manifests itself in the quantity of luciferase produced in the cells.
Compounds (9), (10), (11), (12), (14) and (19) were each added in concentrations of 1 μM to 50 μM to 6.5×10^4 HeLa-cells.
The IC50 value was determined from the plotting of the concentration of the compound against the intensity of the luciferase signal.

The target in series [4] is T1, sec7-domain of Gea2 (Saccharomyces cerevisiae, UniProt P39993).
T1 construct: 1 μM of the purified sec7-domain of cytohesin-1, cytohesin-2 and Gea2; made in house; host or cells: E. coli BL21DE3
T1 sequence (P39993 570-714): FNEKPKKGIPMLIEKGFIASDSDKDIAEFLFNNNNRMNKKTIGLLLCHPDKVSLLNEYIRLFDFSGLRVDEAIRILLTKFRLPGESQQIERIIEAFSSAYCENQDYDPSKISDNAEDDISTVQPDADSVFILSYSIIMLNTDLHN
Put plainly: GDP/GTP exchange on NΔ17-ARF1 catalysed by sec7-domain (tryptophan fluorescence). The class given is biochemical. The protocol: (§1) The IC50 value for the inhibition of the exchange activity of the sec7-domains of various guanine nucleotide exchange factors of the compounds (9), (10), (11), (12), (14) and (19) was determined.
(§2) For this purpose, the sec7-domains of cytohesin-1, cytohesin-2 and Gea2 as well as the NΔ 17-ARF 1, a mutant of the ARF protein, recombinantly expressed in E. coli BL21DE3, were purified by means of a standard method and used as catalysts for the exchange from GDP to GTP in GTPases of the family of the ADP ribosylation factors. The exchange from GDP to GTP induces a conformation change of the ribosylation factor, as a result of which the fluorescence of a tryptophan radical of the protein is increased.
(§3) In 50 mM of HEPES, pH 7.4, 120 mM of KCl, 1 mM of MgCl2, 45 μM of GTP S, the compounds (9), (10), (11), (12), (14) and (19), each in concentrations of 1 μM to 30 μM, were added to 1 μM NΔ 17-ARF1 and, in each case, 1 μM of the purified sec7-domain of cytohesin-1, cytohesin-2 and Gea2, and the fluorescence was measured in a Varioskan, Thermo LifeSciences Inc., at the following wavelengths: excitation: 275 nm, emission 340 nm.
(§4) The IC50 value can be determined by plotting the initial rise of the fluorescence signal against the added concentrations of the compounds. The IC50 value corresponds to the concentration of the compounds at which the activity of the protein is reduced to half. […] Brefeldin A, a specific inhibitor of the […] Gea2 served as the control.

Series [5] addresses T2, sec7-domain of cytohesin-1 (Homo sapiens, UniProt Q15438).
T2 construct: central sec7-domain, corresponding to the amino acids 62-244 in cytohesin-1; made in house; host or cells: E. coli BL21DE3
T2 sequence (Q15438 62-244): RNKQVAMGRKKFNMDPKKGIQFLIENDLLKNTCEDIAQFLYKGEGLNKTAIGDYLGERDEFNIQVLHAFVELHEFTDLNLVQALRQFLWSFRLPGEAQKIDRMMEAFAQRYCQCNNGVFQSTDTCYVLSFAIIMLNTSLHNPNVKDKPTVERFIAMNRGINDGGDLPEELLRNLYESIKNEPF
The description is as above. The class given is biochemical. To be noted: 1 μM NΔ17-ARF1, 1 μM sec7-domain, compounds 1 μM to 30 μM. The protocol: as §1, §2, §3, §4

Series [6] relates to sec7-domain of cytohesin-1. The description is as above. In kind it is biochemical. The settings on record: conclusion in words from Table 1. The protocol: as §1, §2, §3, §4
The target of series [7] is T3, sec7-domain of cytohesin-2 (Homo sapiens, UniProt Q99418).
T3 construct: 1 μM of the purified sec7-domain of cytohesin-1, cytohesin-2 and Gea2; made in house; host or cells: E. coli BL21DE3
T3 sequence (Q99418 72-201 limits assumed): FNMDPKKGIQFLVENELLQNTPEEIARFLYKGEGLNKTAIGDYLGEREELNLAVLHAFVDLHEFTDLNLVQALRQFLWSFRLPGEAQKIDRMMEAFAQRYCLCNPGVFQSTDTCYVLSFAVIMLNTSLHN
Described as above. To be noted: 1 μM NΔ17-ARF1, 1 μM sec7-domain, compounds 1 μM to 30 μM. In kind it is biochemical. The protocol: as §1, §2, §3, §4

As to `COc1nc(-c2ccc3c(c2)OCO3)n(-c2ccc(NC(=O)CSc3ccccc3)cc2)n1` [Compound 9], the “percentage of PI-positive (dead) cells” value in series [1] (2 hours, 24 hours and 72 hours) is on record as “did not rise in a concentration-dependent or time-dependent manner”. Further, the cytotoxicity entry in series [1] (conclusion from PI flow cytometry, up to 72 hours) is “no cytotoxicity or at least no clearly detectable cytotoxicity”. This molecule showed a half-maximal cytotoxic concentration (CC50) at 24 h in series [2] of 141 ± 8 µM. Moreover, the IC50 in series [3] stood at 12 ± 0.8 µM; in series [4] it was 64 ± 4 µM; in series [5] it was 7.6 ± 0.3 µM; in series [7], 8.3 ± 0.2 µM. Moreover, the “specificity of inhibition of sec7-domains (cytohesins vis-à-vis Gea2)” value in series [6] was “specific inhibition of the sec7-domains of the cytohesins”.
